In patent US8470379B2, “Use of a potent product extracted from rhizomes of zingiber officinale in treating a disease associated with Helicobacter pylori” (Medical and Pharmaceutical Industry Technology and …, priority 2007, dated 2013):

Experiments:
[1] = test system: Helicobacter pylori (ATCC 43504); experiment: Anti-microbial test: MIC by agar dilution method; assay type: cell-based; conditions: ATCC43504, Columbia agar + 7% rabbit blood, 35° C., 72 hours, microaerophilic, highest concentration 300 μg/ml, read-out: Minimum inhibitory concentration (MIC)
Procedure: Minimum inhibitory concentration (MIC) of sample on Helicobacter pylori was determined by the agar dilution method [Malanosk G. J. et al. Effect of pH variation on the susceptibility of Helicobacter pylori to three marcolide antimicrobial agents and temafloxacin. Eur. J. Clin. Microbial Infect Dis. 12: pp. 131-133, 1993.]. The test substance was dissolved and serially diluted in DMSO to desired stock concentrations. For each concentration tested, a 0.01 ml aliquot is added to a 48-well plate containing 0.99 ml of Columbia agar base (Oxoid, England) supplemented 7% defibrinated rabbit blood. The inoculum of Helicobacter pylori (ATCC 43504) is prepared by suspending in brain heart infusion broth to a density of 5×10^5 CFU/ml. The final maximal concentration of DMSO is 1% and the initial test substance concentration is 300 μg/ml. The plates are incubated at 35° C. for 72 hours in the microaerophilic condition (Mixed gas N2 85%, CO2 10% and O2 5%) and then visually examined and scored positive (+) for inhibition of the colonies growth or negative (−) for no effect upon growth colonies. Vehicle-control and gentamicin are used as blank and positive controls, respectively. Each concentration is evaluated in duplicate.

[2] = test system: Helicobacter pylori-induced gastric ulcer; experiment: Helicobacter pylori-induced gastric ulcer in mice; assay type: in vivo, male CD-1 (Crl.) derived mice; conditions: 35 mg/kg orally for 7 days
Procedure: Effects of samples on Helicobacter pylori-induced gastric ulcer were evaluated as described previously [Marchetti, M., Arico, B., Burroni, D., Figura, N., Rappuoli, R. and Ghiara, P. Development of a mouse model of Helicobacter pylori infection that mimics human disease. Science 267: 1655-1658, 1995.]. Groups of 5 male CD-1 (Crl.) derived mice weighing 24±2 g were fasted for 18 hours prior to intragastric inoculation of clinical isolated Helicobacter pylori in suspension at 3.2×10^9 colony formation units/0.4 ml/mouse. Test samples and vehicle (2% CMC, 10 ml/kg) were each administered orally to test animals, starting one hour after the Helicobacter pylori inoculation, dosing twice daily (10:00 am and 4:00 pm) for 7 consecutive days. Omeprazole (1 mg/kg) and clarithromycin (10 mg/kg), in combination, were used for the positive control agents and administered orally to test animal once daily for 7 consecutive days under the same schedule. […] Gastric ulceration scored at four levels according to the degree of hemorrhage and severity of ulcerative lesions: • 0=normal appearance • 1=mild red spots • 2=moderate red spots and/or hemorrhage spots • 3=marked hemorrhage spots
Percentage inhibition on Helicobacter pylori-induced gastric ulcer was calculated as follows: (Scores of vehicle group−Scores of test group)/(Scores of vehicle group)×100% The results are shown in Table 3.

Row | Structure (SMILES) | MIC [1] [µg/mL] | Percentage inhibition on Helicobacter pylori-induced gastric ulcer [2] [%]
1 | CCCCC[C@H](O)CC(=O)CCc1ccc(O)c(OC)c1 [Sample 6-Gingerol, 6-Gingerol] | 10 | 25
2 | CCCCC/C=C/C(=O)CCc1ccc(O)c(OC)c1 [Shogaol] | 10 | 
